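The compound was tested at five concentrations on cells cultured in 96-well plates, with a 48-hour exposure period. The concentration for full growth arrest is given as TGI.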
How the values were obtained:
Test in all cases: NCI tumour cell line growth inhibition, 48 h
786-0 renal = test system: 786-0 renal
A498 renal = test system: A498 renal
A549 NSCLC = test system: A549 NSCLC
ACHN renal = test system: ACHN renal
CAKI-1 renal = test system: CAKI-1 renal
CCRF-CEM leukemia = test system: CCRF-CEM leukemia
COLO 205 colon = test system: COLO 205 colon
DLD-1 colon = test system: DLD-1 colon
DMS 114 small cell lung = test system: DMS 114 small cell lung
DMS 273 small cell lung = test system: DMS 273 small cell lung
EKVX NSCLC = test system: EKVX NSCLC
HCC-2998 colon = test system: HCC-2998 colon
HCT-116 colon = test system: HCT-116 colon
HCT-15 colon = test system: HCT-15 colon
HL-60(TB) leukemia = test system: HL-60(TB) leukemia
HOP-18 NSCLC = test system: HOP-18 NSCLC
HOP-62 NSCLC = test system: HOP-62 NSCLC
HOP-92 NSCLC = test system: HOP-92 NSCLC
HT29 colon = test system: HT29 colon
IGROV1 ovarian = test system: IGROV1 ovarian
K-562 leukemia = test system: K-562 leukemia
KM12 colon = test system: KM12 colon
KM20L2 colon = test system: KM20L2 colon
LOX IMVI melanoma = test system: LOX IMVI melanoma
LXFL 529 NSCLC = test system: LXFL 529 NSCLC
M14 melanoma = test system: M14 melanoma
M19-MEL melanoma = test system: M19-MEL melanoma
MALME-3M melanoma = test system: MALME-3M melanoma
MOLT-4 leukemia = test system: MOLT-4 leukemia
NCI-H226 lung = test system: NCI-H226 lung
NCI-H23 lung = test system: NCI-H23 lung
NCI-H460 lung = test system: NCI-H460 lung
NCI-H522 lung = test system: NCI-H522 lung
OVCAR-3 ovarian = test system: OVCAR-3 ovarian
OVCAR-4 ovarian = test system: OVCAR-4 ovarian
OVCAR-5 ovarian = test system: OVCAR-5 ovarian
OVCAR-8 ovarian = test system: OVCAR-8 ovarian
RPMI-8226 leukemia = test system: RPMI-8226 leukemia
RXF 393 renal = test system: RXF 393 renal
RXF-631 renal = test system: RXF-631 renal
SF-268 CNS = test system: SF-268 CNS
SF-295 CNS = test system: SF-295 CNS
SF-539 CNS = test system: SF-539 CNS
SK-MEL-2 melanoma = test system: SK-MEL-2 melanoma
SK-MEL-28 melanoma = test system: SK-MEL-28 melanoma
SK-MEL-5 melanoma = test system: SK-MEL-5 melanoma
SK-OV-3 ovarian = test system: SK-OV-3 ovarian
SN12C renal = test system: SN12C renal
SNB-19 CNS = test system: SNB-19 CNS
SNB-75 CNS = test system: SNB-75 CNS
SNB-78 CNS = test system: SNB-78 CNS
SR leukemia = test system: SR leukemia
SW-620 colon = test system: SW-620 colon
TK-10 renal = test system: TK-10 renal
U251 CNS = test system: U251 CNS
UACC-257 melanoma = test system: UACC-257 melanoma
UACC-62 melanoma = test system: UACC-62 melanoma
UO-31 renal = test system: UO-31 renal
XF 498 CNS = test system: XF 498 CNS

Measured: TGI

COc1ccc2c(c1)[n+]([O-])c(/C(C)=N/NC(=O)CC#N)c[n+]2[O-]
25.8 µM: SW-620 colon
> 100 µM: 786-0 renal | A498 renal | A549 NSCLC | ACHN renal | CAKI-1 renal | CCRF-CEM leukemia | COLO 205 colon | DLD-1 colon | DMS 114 small cell lung | DMS 273 small cell lung | EKVX NSCLC | HCC-2998 colon | HCT-116 colon | HCT-15 colon | HL-60(TB) leukemia | HOP-18 NSCLC | HOP-62 NSCLC | HOP-92 NSCLC | HT29 colon | IGROV1 ovarian | K-562 leukemia | KM12 colon | KM20L2 colon | LOX IMVI melanoma | LXFL 529 NSCLC | M14 melanoma | M19-MEL melanoma | MALME-3M melanoma | MOLT-4 leukemia | NCI-H226 lung | NCI-H23 lung | NCI-H460 lung | NCI-H522 lung | OVCAR-3 ovarian | OVCAR-4 ovarian | OVCAR-5 ovarian | OVCAR-8 ovarian | RPMI-8226 leukemia | RXF 393 renal | RXF-631 renal | SF-268 CNS | SF-295 CNS | SF-539 CNS | SK-MEL-2 melanoma | SK-MEL-28 melanoma | SK-MEL-5 melanoma | SK-OV-3 ovarian | SN12C renal | SNB-19 CNS | SNB-75 CNS | SNB-78 CNS | SR leukemia | TK-10 renal | U251 CNS | UACC-257 melanoma | UACC-62 melanoma | UO-31 renal | XF 498 CNS

— PubChem BioAssay (NCI)
